Experimental data reported in ChEMBL document CHEMBL1944581, “Synthesis and characterization of fluorinated homocysteine derivatives as potential molecular probes for ¹⁹F magnetic resonance spectroscopy and imaging” (Bioorg Med Chem Lett, 2011).

Key:
Type in all cases: ADME
[1] = target: T1, Albumin (Homo sapiens, UniProt P02768); test: Binding affinity to human serum albumin in phosphate buffer assessed as N-homocysteinylation of protein at 6.2 mM at pH 7.43 at 37 degC after 18 hrs by SDS-PAGE-based 19F-NMR spectroscopy; conditions: isolated protein, pH 7.43, 18 h, 6200 µM
T1 sequence (P02768 whole entry): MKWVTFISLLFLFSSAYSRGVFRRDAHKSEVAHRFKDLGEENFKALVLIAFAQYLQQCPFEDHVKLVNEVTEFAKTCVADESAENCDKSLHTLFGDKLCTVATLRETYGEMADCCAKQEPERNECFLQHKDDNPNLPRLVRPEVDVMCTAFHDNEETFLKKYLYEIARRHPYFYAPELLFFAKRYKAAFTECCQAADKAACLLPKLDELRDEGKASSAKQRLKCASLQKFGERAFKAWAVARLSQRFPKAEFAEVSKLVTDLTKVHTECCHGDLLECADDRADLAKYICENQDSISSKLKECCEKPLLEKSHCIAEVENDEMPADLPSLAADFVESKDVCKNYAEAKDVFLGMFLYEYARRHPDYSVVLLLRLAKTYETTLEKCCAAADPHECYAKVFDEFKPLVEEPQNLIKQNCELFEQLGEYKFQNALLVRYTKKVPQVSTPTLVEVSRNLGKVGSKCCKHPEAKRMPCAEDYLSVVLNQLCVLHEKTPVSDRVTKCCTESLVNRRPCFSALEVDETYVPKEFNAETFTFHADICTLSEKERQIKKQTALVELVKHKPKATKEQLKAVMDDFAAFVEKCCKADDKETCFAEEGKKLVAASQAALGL

[2] = target: T1, Albumin; test: Binding affinity to human serum albumin in phosphate buffer assessed as N-homocysteinylation of protein by MALDI-TOF scpectroscopy; conditions: isolated protein
[3] = target: T1, Albumin; test: Binding affinity to human serum albumin in human plasma assessed as protein N-homocysteinylation level at 37 degC for 27 hrs by SDS-PAGE-based 19F-NMR spectroscopy

Measured: Activity

O=C1SCCC1NC(=O)C(F)(F)F (stereo not drawn)
Active: [1] | [2] | [3]
